This note sets out measurements from ChEMBL document CHEMBL5154900, “Design and Synthesis of Dual EZH2/BRD4 Inhibitors to Target Solid Tumors” (J Med Chem, 2022).

Active and inactive are the calls of the source. The rule behind the calls is not given here.

The target of assay [1] is T1, Bromodomain-containing protein 4 (Homo sapiens, UniProt O60885). Briefly: Displacement of fluorescein-labeled JQ1 from His6/TEV cleavage site fused human BRD4 (residues N44 to E168) expressed in Escherichia coli BL21 (DE3) incubated for 60 min by Fluorescence polarization assay. A general note: Polarisation of emitted light reports the rotation of a fluorescent probe.

The target in assay [2] is T2, Histone-lysine N-methyltransferase EZH2 (Homo sapiens, UniProt Q15910).
Target sequence in this assay (Q15910 whole entry): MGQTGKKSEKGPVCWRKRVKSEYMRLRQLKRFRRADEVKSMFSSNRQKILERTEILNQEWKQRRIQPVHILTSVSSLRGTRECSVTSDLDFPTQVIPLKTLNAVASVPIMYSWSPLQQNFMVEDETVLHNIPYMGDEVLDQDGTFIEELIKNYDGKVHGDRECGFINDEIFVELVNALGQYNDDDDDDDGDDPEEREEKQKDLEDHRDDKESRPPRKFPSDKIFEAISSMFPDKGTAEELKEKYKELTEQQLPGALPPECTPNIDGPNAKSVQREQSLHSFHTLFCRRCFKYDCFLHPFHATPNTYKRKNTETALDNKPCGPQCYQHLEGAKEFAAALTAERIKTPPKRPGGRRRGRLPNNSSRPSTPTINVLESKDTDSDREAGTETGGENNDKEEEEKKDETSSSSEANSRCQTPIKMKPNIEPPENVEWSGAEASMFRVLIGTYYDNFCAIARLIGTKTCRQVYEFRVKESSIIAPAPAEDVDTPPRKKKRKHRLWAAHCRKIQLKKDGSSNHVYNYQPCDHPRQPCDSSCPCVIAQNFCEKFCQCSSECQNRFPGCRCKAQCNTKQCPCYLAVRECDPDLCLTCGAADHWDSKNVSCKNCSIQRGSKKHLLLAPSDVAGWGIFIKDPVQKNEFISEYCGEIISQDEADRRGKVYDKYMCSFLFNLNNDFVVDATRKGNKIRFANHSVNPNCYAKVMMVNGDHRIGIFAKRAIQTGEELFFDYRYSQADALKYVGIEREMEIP
For the next assay, the system named is ASPC1. Briefly: Antiproliferative activity against human ASPC1 cells assessed as cell growth inhibition incubated for 6 days by MTS assay. As to conditions: ASPC1, 144 h. Format: functional, cell-based. For orientation: Tetrazolium assays rely on reduction of a dye to a coloured formazan, in cell work by metabolically active cells.
The target of assay [3] is T2, Histone-lysine N-methyltransferase EZH2. Briefly: Inhibition of EZH2 in human ASPC1 cells assessed as decrease in H3K27me3 levels at 1 uM incubated for 72 hrs by Western blot analysis. Format: cell-based. On the technique in general: A western blot detects proteins with antibodies after separation by electrophoresis.
Target sequence in this assay (Q15910 whole entry, looked up): as the sequence (Q15910 whole entry) above
In the next assay the test system is HCT-116. Briefly: Induction of apoptosis in human HCT116 cells assessed as early apoptotic cells at 10 uM measured after 72 hrs by flow cytometry (reference value: 2.8 %). Format: functional.
Assay [4] deals with T1, Bromodomain-containing protein 4. Nature of the assay: Inhibition of BRD4 in human ASPC1 cells assessed as decrease in c-Myc level at 1 uM incubated for 72 hrs by Western blot analysis. Format: cell-based.

As usually defined, the IC50 is the concentration that gives 50% inhibition. As to `CCN(c1cc(-c2ccc(NC(=O)CCOCCOCCOCCNC(=O)C[C@@H]3N=C(c4ccc(Cl)cc4)c4c(sc(C)c4C)-n4c(C)nnc43)cc2)cc(C(=O)NCc2c(C)cc(C)[nH]c2=O)c1C)C1CCOCC1`, the IC50 stood at 0.604 µM in assay [1], 1.04 µM in assay [2] and 9.25 µM with ASPC1 (read-out: IC50).
Take `CCN(c1cc(-c2ccc(NC(=O)CCCCCCNC(=O)C[C@@H]3N=C(c4ccc(Cl)cc4)c4c(sc(C)c4C)-n4c(C)nnc43)cc2)cc(C(=O)NCc2c(C)cc(C)[nH]c2=O)c1C)C1CCOCC1`: the IC50 was 0.58 µM in assay [1], 0.53 µM in assay [2] and 11.2 µM with ASPC1 (read-out: IC50).
Take `CCN(c1cc(-c2ccc(CNC(=O)C[C@@H]3N=C(c4ccc(Cl)cc4)c4c(sc(C)c4C)-n4c(C)nnc43)cc2)cc(C(=O)NCc2c(C)cc(C)[nH]c2=O)c1C)C1CCOCC1`: the figures for the IC50 (in assay [1]; in assay [2]; with ASPC1 (read-out: IC50)) were 1.48 µM, 29.8 µM and 6.5 µM, respectively. For the same compound, in assay [3], the inhibition entry was “Active”.
For `CCN(c1cc(-c2ccc(C(=O)NCCOCCNC(=O)C[C@@H]3N=C(c4ccc(Cl)cc4)c4c(sc(C)c4C)-n4c(C)nnc43)cc2)cc(C(=O)NCc2c(C)cc(C)[nH]c2=O)c1C)C1CCOCC1` the same measures were 0.248 µM, 0.3 µM, 7.09 µM and “Active”.
For `CCN(c1cc(-c2ccc(CCNC(=O)C[C@@H]3N=C(c4ccc(Cl)cc4)c4c(sc(C)c4C)-n4c(C)nnc43)cc2)cc(C(=O)NCc2c(C)cc(C)[nH]c2=O)c1C)C1CCOCC1` the same measures were 0.945 µM, 77.8 µM, 2.61 µM and “Active”.
Regarding `CCN(c1cc(-c2ccc(CN3CCOCC3)cc2)cc(C(=O)NCc2c(C)cc(C)[nH]c2=O)c1C)C1CCOCC1` [TAZEMETOSTAT], the Activity in the assay with HCT-116 came to 2.8%. Also, the IC50 in the assay with ASPC1 (read-out: IC50) is more than 30 µM.
With `CCN(c1cc(-c2ccc(NC(=O)C[C@@H]3N=C(c4ccc(Cl)cc4)c4c(sc(C)c4C)-n4c(C)nnc43)cc2)cc(C(=O)NCc2c(C)cc(C)[nH]c2=O)c1C)C1CCOCC1`, the IC50 in assay [1] turned out to be 2.84 µM; in assay [2] it was 16.1 µM; in the assay with ASPC1 (read-out: IC50) it was 13.8 µM.
For `CCN(c1cc(-c2ccc(NC(=O)CCCCCCCNC(=O)C[C@@H]3N=C(c4ccc(Cl)cc4)c4c(sc(C)c4C)-n4c(C)nnc43)cc2)cc(C(=O)NCc2c(C)cc(C)[nH]c2=O)c1C)C1CCOCC1` the same measures were 2.34 µM, 0.55 µM and 17.5 µM.
For the compound `CCN(c1cc(-c2ccc(OCCCNC(=O)C[C@@H]3N=C(c4ccc(Cl)cc4)c4c(sc(C)c4C)-n4c(C)nnc43)cc2)cc(C(=O)NCc2c(C)cc(C)[nH]c2=O)c1C)C1CCOCC1`, the IC50 amounted to 1.72 µM in assay [1], 0.98 µM in assay [2] and 1.37 µM in the assay with ASPC1 (read-out: IC50). The inhibition result in assay [4] is “Active”.
In the same order, the values of `CCN(c1cc(-c2ccc(OCCNC(=O)C[C@@H]3N=C(c4ccc(Cl)cc4)c4c(sc(C)c4C)-n4c(C)nnc43)cc2)cc(C(=O)NCc2c(C)cc(C)[nH]c2=O)c1C)C1CCOCC1` are 1.54 µM, 7.55 µM, 1.86 µM and “Active”.
Consider `Cc1sc2c(c1C)C(c1ccc(Cl)cc1)=N[C@@H](CC(=O)OC(C)(C)C)c1nnc(C)n1-2`, for which the Activity in the assay with HCT-116 was found to be 20.3%. The IC50 in the assay on ASPC1 was 3.39 µM.
As for `CCN(c1cc(-c2ccc(OCCCCNC(=O)C[C@@H]3N=C(c4ccc(Cl)cc4)c4c(sc(C)c4C)-n4c(C)nnc43)cc2)cc(C(=O)NCc2c(C)cc(C)[nH]c2=O)c1C)C1CCOCC1`, the IC50 in assay [1] was found to be 0.082 µM; in assay [2] it was 0.42 µM; in the assay on ASPC1 (read-out: IC50) it was 0.99 µM. Also, the inhibition result in assay [3] and in assay [4] was “Active” throughout.
